# From ChEMBL document CHEMBL1201862, “PubChem BioAssay data set” (2004)
#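 Cultured in 96-well plates, cells were exposed to test compound for 48 hours across five concentrations. At the GI50, growth is halved.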 Activity calls are given as the source filed them. Rule as the data show it: active = GI50 up to about 1.1 µM and inactive = higher.
# How the values were obtained:
# Test in all cases: NCI anticancer screen, dose series, 48 h
# HCT-15 = tested on: HCT-15
# SF-268 = tested on: SF-268
# SK-OV-3 = tested on: SK-OV-3
# SN12C = tested on: SN12C
# SK-MEL-28 = tested on: SK-MEL-28
# UO-31 = tested on: UO-31
# NCI/ADR-RES = tested on: NCI/ADR-RES
# OVCAR-5 = tested on: OVCAR-5
# 786-0 = tested on: 786-0
# DMS-273 = tested on: DMS-273
# DLD-1 = tested on: DLD-1
# RPMI-8226 = tested on: RPMI-8226
# EKVX = tested on: EKVX
# OVCAR-4 = tested on: OVCAR-4
# SNB-78 = tested on: SNB-78
# MDA-MB-231 = tested on: MDA-MB-231
# LXFL 529 = tested on: LXFL 529
# SW-620 = tested on: SW-620
# KM12 = tested on: KM12
# XF498 = tested on: XF498
# NCI-H522 = tested on: NCI-H522
# MDA-N = tested on: MDA-N
# A549 = tested on: A549
# K562 = tested on: K562
# HL-60 = tested on: HL-60
# HT-29 = tested on: HT-29
# DMS-114 = tested on: DMS-114
# SF-539 = tested on: SF-539
# MDA-MB-435 = tested on: MDA-MB-435
# HOP-92 = tested on: HOP-92
# SNB-19 = tested on: SNB-19
# HCT-116 = tested on: HCT-116
# M14 = tested on: M14
# OVCAR-3 = tested on: OVCAR-3
# SF-295 = tested on: SF-295
# NCI-H460 = tested on: NCI-H460
# SNB-75 = tested on: SNB-75
# COLO 205 = tested on: COLO 205
# Hs-578T = tested on: Hs-578T
# Malme-3M = tested on: Malme-3M
# UACC-257 = tested on: UACC-257
# T47D = tested on: T47D
# SK-MEL-5 = tested on: SK-MEL-5
# BT-549 = tested on: BT-549
# IGROV-1 = tested on: IGROV-1
# M19-MEL = tested on: M19-MEL
# MCF7 = tested on: MCF7
# SK-MEL-2 = tested on: SK-MEL-2
# TK-10 = tested on: TK-10
# CAKI-1 = tested on: CAKI-1
# LOX IMVI = tested on: LOX IMVI
# NCI-H23 = tested on: NCI-H23
# RXF 393 = tested on: RXF 393
# PC-3 = tested on: PC-3
# UACC-62 = tested on: UACC-62
# A498 = tested on: A498
# OVCAR-8 = tested on: OVCAR-8
# MOLT-4 = tested on: MOLT-4
# NCI-H226 = tested on: NCI-H226
# KM-20L2 = tested on: KM-20L2
# HOP-62 = tested on: HOP-62
# ACHN = tested on: ACHN
# SR = tested on: SR
# U-251 = tested on: U-251
# DU-145 = tested on: DU-145
# HCC 2998 = tested on: HCC 2998
# CCRF-CEM = tested on: CCRF-CEM
structure (smiles),measurement,setting,value
COc1cc(/C=C(\C#N)C(N)=C(C#N)C#N)cc(O)c1O,GI50,HCT-15,> 68.5 µM
same,GI50,SF-268,> 87.9 µM (inactive)
same,GI50,SK-OV-3,> 100 µM (inactive)
same,GI50,SN12C,> 36 µM (inactive)
same,GI50,SK-MEL-28,> 100 µM (inactive)
same,GI50,UO-31,> 77.8 µM (inactive)
same,GI50,NCI/ADR-RES,> 100 µM (inactive)
same,GI50,OVCAR-5,> 100 µM (inactive)
same,GI50,786-0,> 100 µM (inactive)
same,GI50,DMS-273,> 100 µM (inactive)
same,GI50,DLD-1,> 100 µM (inactive)
same,GI50,RPMI-8226,> 100 µM (inactive)
same,GI50,EKVX,> 89.7 µM (inactive)
same,GI50,OVCAR-4,> 100 µM (inactive)
same,GI50,SNB-78,> 100 µM (inactive)
same,GI50,MDA-MB-231,> 100 µM (inactive)
same,GI50,LXFL 529,> 100 µM (inactive)
same,GI50,SW-620,> 76.4 µM (inactive)
same,GI50,KM12,> 84.3 µM (inactive)
same,GI50,XF498,> 100 µM (inactive)
same,GI50,NCI-H522,36 µM (inactive)
same,GI50,MDA-N,68.2 µM (inactive)
same,GI50,A549,> 100 µM (inactive)
same,GI50,K562,> 79.6 µM (inactive)
same,GI50,HL-60,26.9 µM (inactive)
same,GI50,HT-29,> 83.9 µM (inactive)
same,GI50,DMS-114,47 µM (inactive)
same,GI50,SF-539,> 100 µM (inactive)
same,GI50,MDA-MB-435,59.3 µM (inactive)
same,GI50,HOP-92,> 68.4 µM (inactive)
same,GI50,SNB-19,> 87.5 µM (inactive)
same,GI50,HCT-116,> 70.5 µM (inactive)
same,GI50,M14,> 100 µM (inactive)
same,GI50,OVCAR-3,> 56.4 µM (inactive)
same,GI50,SF-295,> 77.1 µM (inactive)
same,GI50,NCI-H460,> 89.1 µM (inactive)
same,GI50,SNB-75,> 88.5 µM (inactive)
same,GI50,COLO 205,> 100 µM (inactive)
same,GI50,Hs-578T,42.9 µM (inactive)
same,GI50,Malme-3M,> 100 µM (inactive)
same,GI50,UACC-257,> 100 µM (inactive)
same,GI50,T47D,91.8 µM (inactive)
same,GI50,SK-MEL-5,> 100 µM (inactive)
same,GI50,BT-549,> 100 µM (inactive)
same,GI50,IGROV-1,> 66.8 µM (inactive)
same,GI50,M19-MEL,> 100 µM (inactive)
same,GI50,MCF7,95.3 µM (inactive)
same,GI50,SK-MEL-2,> 100 µM (inactive)
same,GI50,TK-10,> 100 µM (inactive)
same,GI50,CAKI-1,> 100 µM (inactive)
same,GI50,LOX IMVI,> 61.4 µM (inactive)
same,GI50,NCI-H23,> 100 µM (inactive)
same,GI50,RXF 393,> 100 µM (inactive)
same,GI50,PC-3,> 100 µM (inactive)
same,GI50,UACC-62,> 93.5 µM (inactive)
same,GI50,A498,> 100 µM (inactive)
same,GI50,OVCAR-8,91.2 µM (inactive)
same,GI50,MOLT-4,55.2 µM (inactive)
same,GI50,NCI-H226,> 63.5 µM (inactive)
same,GI50,KM-20L2,> 100 µM (inactive)
same,GI50,HOP-62,> 71.6 µM (inactive)
same,GI50,ACHN,> 100 µM (inactive)
same,GI50,SR,35.1 µM (inactive)
same,GI50,U-251,> 88.7 µM (inactive)
same,GI50,DU-145,> 100 µM (inactive)
same,GI50,HCC 2998,> 100 µM (inactive)
same,GI50,CCRF-CEM,22.7 µM (inactive)
c1cc(C2O[C@H]3CCCN3[C@@H]2c2ccncc2)ccn1 (stereo not given in full),GI50,HCT-15,> 100 µM
same,GI50,SF-268,> 100 µM (inactive)
same,GI50,SK-OV-3,> 100 µM (inactive)
same,GI50,SN12C,> 100 µM (inactive)
same,GI50,SK-MEL-28,> 100 µM (inactive)
same,GI50,UO-31,> 100 µM (inactive)
same,GI50,OVCAR-5,> 100 µM (inactive)
same,GI50,786-0,> 100 µM (inactive)
same,GI50,DMS-273,> 100 µM (inactive)
same,GI50,DLD-1,> 100 µM (inactive)
same,GI50,RPMI-8226,> 100 µM (inactive)
same,GI50,EKVX,> 100 µM (inactive)
same,GI50,OVCAR-4,> 100 µM (inactive)
same,GI50,SNB-78,> 100 µM (inactive)
same,GI50,LXFL 529,> 100 µM (inactive)
same,GI50,SW-620,> 100 µM (inactive)
same,GI50,KM12,> 100 µM (inactive)
same,GI50,XF498,> 100 µM (inactive)
same,GI50,NCI-H522,> 100 µM (inactive)
same,GI50,A549,> 100 µM (inactive)
same,GI50,K562,> 100 µM (inactive)
same,GI50,HT-29,> 100 µM (inactive)
same,GI50,DMS-114,> 100 µM (inactive)
same,GI50,SF-539,> 100 µM (inactive)
same,GI50,SNB-19,> 100 µM (inactive)
same,GI50,HCT-116,> 100 µM (inactive)
same,GI50,M14,> 100 µM (inactive)
same,GI50,OVCAR-3,> 100 µM (inactive)
same,GI50,SF-295,> 100 µM (inactive)
same,GI50,NCI-H460,> 100 µM (inactive)
same,GI50,SNB-75,> 100 µM (inactive)
same,GI50,COLO 205,> 100 µM (inactive)
same,GI50,Malme-3M,> 100 µM (inactive)
same,GI50,UACC-257,> 100 µM (inactive)
same,GI50,SK-MEL-5,> 100 µM (inactive)
same,GI50,IGROV-1,> 100 µM (inactive)
same,GI50,M19-MEL,> 100 µM (inactive)
same,GI50,SK-MEL-2,> 100 µM (inactive)
same,GI50,TK-10,> 100 µM (inactive)
same,GI50,CAKI-1,> 100 µM (inactive)
same,GI50,LOX IMVI,> 100 µM (inactive)
same,GI50,NCI-H23,> 100 µM (inactive)
same,GI50,RXF 393,> 100 µM (inactive)
same,GI50,UACC-62,> 100 µM (inactive)
same,GI50,A498,> 100 µM (inactive)
same,GI50,OVCAR-8,> 100 µM (inactive)
same,GI50,MOLT-4,> 100 µM (inactive)
same,GI50,NCI-H226,> 100 µM (inactive)
same,GI50,KM-20L2,> 100 µM (inactive)
same,GI50,HOP-62,> 100 µM (inactive)
same,GI50,ACHN,> 100 µM (inactive)
same,GI50,U-251,> 100 µM (inactive)
same,GI50,CCRF-CEM,> 100 µM (inactive)
